Legend:
[1] = Cardiovascular activity in spontaneously beating rat right atria assessed as change in rate of contraction at 80 uM by microdynameter relative to control; type: functional; conditions: Right cardiac atrium
[2] = Cardiovascular activity in spontaneously beating rat right atria assessed as change in amplitude of contraction at 80 uM by microdynameter relative to control; type: functional; conditions: Right cardiac atrium
[3] = Solubility in water; type: physicochemical; conditions: buffer

SMILES | Activity [1] [%] | Activity [2] [%] | solubility [3]
CO[C@H]1CC=C2CCN3CCC(O)c4cc5c(cc4[C@]23C1)OCO5 (stereo partly drawn) | -6 | 11.5 | 
COc1cc2c(cc1OC)-c1cc3c(cc1CCCN(C)CC2)OCO3 [DYSAZECINE] |  |  | Insoluble
COc1ccc(CC[C@@H]2c3cc(OC)c(OC)cc3CCN2C)cc1OC | -6.7 | 16.3 | 
C=C1C[C@]23CC[C@@H]4C(C)(C)CCC[C@@]4(C)[C@@H]2CC[C@H]1C3 [PHYLLOCLADENE] |  |  | Insoluble
COc1cc2c(cc1OC)[C@@H](CCc1ccc3c(c1)OCO3)N(C)CC2 | -6.4 | 11.8 | 

Source: ChEMBL document CHEMBL1150735, “Phytochemical and pharmacological investigation of the cardioactive constituents of the leaf of Dysoxylum lenticellare” (J Nat Prod, 1987)
